Assay results reported in paper PMC11881035, “^68Ga-Labeled Glycopeptides as Effective Tools for Liver Function Imaging” (Molecular Pharmaceutics, 2025).
Read-outs that look alike come from different tables or passages of the source. Where a SMILES comes first, the peptide text is derived from it. The star is where a group is joined. X1 = O=C(CCCCc1cn([C@@H]2O[C@H](CO)[C@H](O)[C@H](O)[C@H]2O)nn1)*; NODAGA = O=C(O)CN1CCN(CC(=O)O)CCN(C(CCC(=O)*)C(=O)O)CC1; GABA = NCCCC(=O)O

Columns and labels:
[1] = biodistribution in healthy BALB/c mice; details: mouse, in vivo
Description: (§1) The ^68Ge/^68Ga generator, devices for analytical HPLC, semipreparative HPLC, mass spectrometry, radio-thin layer chromatography, gamma counter and animal models for biodistribution and imaging studies including the image reconstruction procedures were the same as described before.[22] Stability assays in PBS and human blood serum, protein binding as well as determination of log D values followed established protocols.[25] Binding affinities (IC50) of selected ligands were determined in an isolated receptor-based assay according to a previously published procedure with minor modifications.[22] Dilutions of nonradioactive complexes were made with PBS + 0.1% BSA (10^–5–10^–12 M). Preparation of [^125I]I-Asialoorosomucoid which serves as the radioactive standard ligand has been published recently.[21]
(§2) Animal experiments were performed in accordance with the Austrian animal experiments law (BGBl. I Nr. 114/2012) and the institution’s animal welfare standards as approved by the Austrian Federal Ministry of Education, Science and Research (BMBWF, 2022–0.311.708). Imaging experiments were conducted at Werner Siemens Imaging Center (Tübingen, Germany) according to the German animal welfare act as approved by the local authorities (R5/19 G, R09/21 G).
(§3) Figure 2 Biodistribution data (% ID/g) of ^68Ga-labeled NODAGA-GalNAc-NonaLysan, NODAGA-NonaLysan, NODAGA-HexaLysan, and NODAGA-TriLysan in healthy BALB/c mice at 10, 30, and 60 min p.i. (100 pmol, 1 MBq).

[2] = system: healthy female BALB/c mice; assay: biodistribution in healthy BALB/c mice; details: mouse, in vivo
Description: as §1, §2, §3

log D determination = assay type: physicochemical
Description: as §1

[3] = protein binding in human serum; assay type: in vitro ADME; details: human, serum
Description: as §1

complex stability in PBS = assay type: physicochemical
Description: as §1

[4] = complex stability in human blood serum; assay type: in vitro ADME
Description: as §1

[5] = 2 min, read-out: protein binding (%) (converted)
[6] = 30 min, read-out: protein binding (%) (converted)

## NC(=O)CNC(=O)CNC(=O)[C@H](CCCCNC(=O)CCCCc1cn([C@@H]2O[C@H](CO)[C@H](O)[C@H](O)[C@H]2O)nn1)NC(=O)CNC(=O)CNC(=O)[C@H](CCCCNC(=O)CCCCc1cn([C@@H]2O[C@H](CO)[C@H](O)[C@H](O)[C@H]2O)nn1)NC(=O)CNC(=O)CNC(=O)[C@H](CCCCNC(=O)CCCCc1cn([C@@H]2O[C@H](CO)[C@H](O)[C@H](O)[C@H]2O)nn1)NC(=O)CNC(=O)CNC(=O)[C@H](CCCCNC(=O)CCCCc1cn([C@@H]2O[C@H](CO)[C@H](O)[C@H](O)[C@H]2O)nn1)NC(=O)CNC(=O)CNC(=O)[C@H](CCCCNC(=O)CCCCc1cn([C@@H]2O[C@H](CO)[C@H](O)[C@H](O)[C@H]2O)nn1)NC(=O)CNC(=O)CNC(=O)[C@H](CCCCNC(=O)CCCCc1cn([C@@H]2O[C@H](CO)[C@H](O)[C@H](O)[C@H]2O)nn1)NC(=O)CCCNC(=O)CCC(C(=O)O)N1CCN(CC(=O)O)CCN(CC(=O)O)CC1 (stereo partly drawn) [[^68Ga]Ga-NODAGA-HexaLysan, metal not drawn] ({NODAGA-GABA}-K(X1)GGK(X1)GGK(X1)GGK(X1)GGK(X1)GGK(X1)GG-NH2)
[1]; Blood uptake
  tissue uptake at 10 min: 2.1 ± 0.04 %ID/g
  tissue uptake at 0.5 h: 0.6 ± 0.1 %ID/g
  tissue uptake at 1 h: 1.1 ± 0.4 %ID/g
[1]; Femur uptake
  tissue uptake at 10 min: 0.5 ± 0.1 %ID/g
  tissue uptake at 0.5 h: 0.3 ± 0.03 %ID/g
[1]; Heart uptake
  tissue uptake at 10 min: 0.9 ± 0.1 %ID/g
  tissue uptake at 0.5 h: 0.4 ± 0.1 %ID/g
  tissue uptake at 1 h: 0.3 ± 0.02 %ID/g
[1]; Intestine uptake
  tissue uptake at 10 min: 1.2 ± 0.3 %ID/g
  tissue uptake at 0.5 h: 4 ± 0.3 %ID/g
  tissue uptake at 1 h: 5.9 ± 1.7 %ID/g
[1]; Kidneys uptake
  tissue uptake at 10 min: 4.8 ± 0.3 %ID/g
  tissue uptake at 0.5 h: 1.9 ± 0.2 %ID/g
  tissue uptake at 1 h: 1.3 ± 0.3 %ID/g
[1]; Liver uptake
  tissue uptake at 10 min: 54.8 ± 3 %ID/g
  tissue uptake at 0.5 h: 55.5 ± 7.4 %ID/g
  tissue uptake at 1 h: 45.9 ± 11.8 %ID/g
[1]; Lung uptake
  tissue uptake at 10 min: 1.6 ± 0.2 %ID/g
  tissue uptake at 0.5 h: 0.8 ± 0.1 %ID/g
  tissue uptake at 1 h: 0.6 ± 0.2 %ID/g
[1]; Muscle uptake
  tissue uptake at 10 min: 0.9 ± 1.2 %ID/g
  tissue uptake at 0.5 h: 0.6 ± 0.03 %ID/g
  tissue uptake at 1 h: 0.4 ± 0.04 %ID/g
[1]; Pancreas uptake
  tissue uptake at 10 min: 0.9 ± 0.1 %ID/g
  tissue uptake at 0.5 h: 0.7 ± 0.1 %ID/g
  tissue uptake at 1 h: 0.5 ± 0.1 %ID/g
[1]; Spleen uptake
  tissue uptake at 10 min: 0.5 ± 0.1 %ID/g
  tissue uptake at 0.5 h: 0.2 ± 0.1 %ID/g
  tissue uptake at 1 h: 0.2 ± 0.02 %ID/g
[1]; Stomach uptake
  tissue uptake at 10 min: 1.3 ± 0.3 %ID/g
  tissue uptake at 0.5 h: 1.2 ± 0.3 %ID/g
  tissue uptake at 1 h: 0.4 ± 0.1 %ID/g
[2]; 0.5 h
  Liver uptake: 55.7 ± 7.4 % ID/g
[2]; 1 h
  Femur uptake: 0 % ID/g
Log D determination
  logD: -4.34
[3]; [5]
  fraction unbound: 0.824
[3]; [6]
  fraction unbound: 0.782
[3]; protein binding (%)
  fraction unbound: 0.785

## NC(=O)CNC(=O)CNC(=O)[C@H](CCCCNC(=O)CCCCc1cn([C@@H]2O[C@H](CO)[C@H](O)[C@H](O)[C@H]2O)nn1)NC(=O)CNC(=O)CNC(=O)[C@H](CCCCNC(=O)CCCCc1cn([C@@H]2O[C@H](CO)[C@H](O)[C@H](O)[C@H]2O)nn1)NC(=O)CNC(=O)CNC(=O)[C@H](CCCCNC(=O)CCCCc1cn([C@@H]2O[C@H](CO)[C@H](O)[C@H](O)[C@H]2O)nn1)NC(=O)CCCNC(=O)CCC(C(=O)O)N1CCN(CC(=O)O)CCN(CC(=O)O)CC1 (stereo partly drawn) [[^68Ga]Ga-NODAGA-TriLysan, metal not drawn] ({NODAGA-GABA}-K(X1)GGK(X1)GGK(X1)GG-NH2)
[1]; 10 min p.i., read-out: Blood uptake
  tissue uptake at 10 min: 3.6 ± 0.1 %ID/g
[1]; 10 min p.i., read-out: Femur uptake
  tissue uptake at 10 min: 0.9 ± 0.3 %ID/g
[1]; 10 min p.i., read-out: Heart uptake
  tissue uptake at 10 min: 1.4 ± 0.01 %ID/g
[1]; 10 min p.i., read-out: Intestine uptake
  tissue uptake at 10 min: 1.2 ± 0.3 %ID/g
[1]; 10 min p.i., read-out: Kidneys uptake
  tissue uptake at 10 min: 7.6 ± 1.4 %ID/g
[1]; 10 min p.i., read-out: Liver uptake
  tissue uptake at 10 min: 9.5 ± 1.6 %ID/g
[1]; 10 min p.i., read-out: Lung uptake
  tissue uptake at 10 min: 2.6 ± 0.2 %ID/g
[1]; 10 min p.i., read-out: Muscle uptake
  tissue uptake at 10 min: 0.9 ± 0.1 %ID/g
[1]; 10 min p.i., read-out: Pancreas uptake
  tissue uptake at 10 min: 1 ± 0.04 %ID/g
[1]; 10 min p.i., read-out: Spleen uptake
  tissue uptake at 10 min: 1 ± 0.01 %ID/g
[1]; 10 min p.i., read-out: Stomach uptake
  tissue uptake at 10 min: 1.6 ± 0.2 %ID/g
[1]; 30 min p.i., read-out: Blood uptake
  tissue uptake at 0.5 h: 1.6 ± 0.2 %ID/g
[1]; 30 min p.i., read-out: Femur uptake
  tissue uptake at 0.5 h: 0.4 ± 0.02 %ID/g
[1]; 30 min p.i., read-out: Heart uptake
  tissue uptake at 0.5 h: 0.6 ± 0.04 %ID/g
[1]; 30 min p.i., read-out: Intestine uptake
  tissue uptake at 0.5 h: 1.1 ± 0.02 %ID/g
[1]; 30 min p.i., read-out: Kidneys uptake
  tissue uptake at 0.5 h: 5 ± 0.02 %ID/g
[1]; 30 min p.i., read-out: Liver uptake
  tissue uptake at 0.5 h: 9.4 ± 2 %ID/g
[1]; 30 min p.i., read-out: Lung uptake
  tissue uptake at 0.5 h: 1.2 ± 0.1 %ID/g
[1]; 30 min p.i., read-out: Muscle uptake
  tissue uptake at 0.5 h: 0.4 ± 0.04 %ID/g
[1]; 30 min p.i., read-out: Pancreas uptake
  tissue uptake at 0.5 h: 0.4 %ID/g
[1]; 30 min p.i., read-out: Spleen uptake
  tissue uptake at 0.5 h: 0.4 ± 0.02 %ID/g
[1]; 30 min p.i., read-out: Stomach uptake
  tissue uptake at 0.5 h: 0.9 ± 0.1 %ID/g
[1]; 60 min p.i., read-out: Blood uptake
  tissue uptake at 1 h: 0.3 ± 0.01 %ID/g
[1]; 60 min p.i., read-out: Femur uptake
  tissue uptake at 1 h: 0.1 ± 0.01 %ID/g
[1]; 60 min p.i., read-out: Heart uptake
  tissue uptake at 1 h: 0.2 ± 0.01 %ID/g
[1]; 60 min p.i., read-out: Intestine uptake
  tissue uptake at 1 h: 1 ± 0.3 %ID/g
[1]; 60 min p.i., read-out: Kidneys uptake
  tissue uptake at 1 h: 2 ± 0.3 %ID/g
[1]; 60 min p.i., read-out: Liver uptake
  tissue uptake at 1 h: 9.2 ± 0.3 %ID/g
[1]; 60 min p.i., read-out: Lung uptake
  tissue uptake at 1 h: 0.5 ± 0.1 %ID/g
[1]; 60 min p.i., read-out: Muscle uptake
  tissue uptake at 1 h: 0.1 %ID/g
[1]; 60 min p.i., read-out: Pancreas uptake
  tissue uptake at 1 h: 0.2 ± 0.01 %ID/g
[1]; 60 min p.i., read-out: Spleen uptake
  tissue uptake at 1 h: 0.2 %ID/g
[1]; 60 min p.i., read-out: Stomach uptake
  tissue uptake at 1 h: 0.3 ± 0.01 %ID/g
Complex stability in PBS; 2 min
  complex stability in PBS (% intact ligand): 99.7%
Complex stability in PBS; 30 min
  complex stability in PBS (% intact ligand): 99.8%
Complex stability in PBS; 60 min
  complex stability in PBS (% intact ligand): 99.8%
Complex stability in PBS; 120 min
  complex stability in PBS (% intact ligand): 99.8%
[4]; 2 min
  complex stability in serum (% intact ligand): 99.9%
[4]; 30 min
  complex stability in serum (% intact ligand): 99.9%
[4]; 60 min
  complex stability in serum (% intact ligand): 99.9%
[4]; 120 min
  complex stability in serum (% intact ligand): 99.9%
Log D determination
  logD: -3.52
[3]; [5]
  fraction unbound: 0.924
[3]; [6]
  fraction unbound: 0.945
[3]; 60 min, read-out: protein binding (%) (converted)
  fraction unbound: 0.908
[3]; 120 min, read-out: protein binding (%) (converted)
  fraction unbound: 0.864
